A word on the melting point: it is the temperature of the solid-liquid transition.

SMILES strings stand for the structures.

The record followed here is a melting point compilation (Tetko et al.; mined from patent text by program, amines drawn as free bases though some values may be those of a salt).

`Nc1cccc2c1C(=O)C1=C(CCCC1)C2=O` came in with a melting point of 189 to 191 °C.
`Cc1c(F)c(N2CCC(n3cc(-c4ccccc4)nn3)C2)c(F)c2c1c(=O)c(C(=O)O)cn2C1CC1` (centres undefined): the melting point turned out to be 221 °C.
To `CCCn1c(-c2ccccc2)nc2cc(C#N)c(C#N)cc21` belongs 183 to 185 °C; to `CC1CN(CCCCC(c2ccc(F)cc2)c2ccc(F)cc2)CCN1CC(=O)Nc1c(Cl)cc(NC(N)=O)cc1Cl` (centres undefined), 120 °C.
In the case of `CCCCNC(=O)n1c(=S)[nH]c2ccccc21` it was 179 to 180 °C; in that of `O=C(CN1CCC(Cc2ccc(F)cc2)CC1)Nc1ccc2cn[nH]c2c1`, 135 to 137 °C; in that of `CCOC(=O)CCc1sc(N)nc1-c1ccc(Cl)cc1`, 160 to 161 °C.
To `CC1(C)CC(NC(=O)c2cc(C(C)(C)C)c(O)c(C(C)(C)C)c2)CC(C)(C)N1` belongs 256 to 258 °C.
As for `O=[N+]([O-])c1c(C(F)(F)F)cc(OCc2ccccc2)cc1C(F)(F)F`, the melting point lay within 141 to 143 °C.
In the case of `O=C(C=Cc1ccccc1)c1ccc(OCc2ccccc2)cc1O` it was 116 to 118 °C; in that of `CN(C)C(=O)n1cc2c(n1)-c1ccc(Cl)cc1C(c1ccccc1Cl)=NC2`, 175 to 176 °C.
To `Nc1ncnc2c1ncn2Cc1oc2ccc(F)cc2c(=O)c1-c1ccccc1` belongs 207 to 209 °C; to `O=S(=O)(Cl)c1cccc2c1COC2`, 40 to 43 °C.
To `Nc1ccc2c(c1)CNC2` belongs 113 to 119 °C; to `CCCOc1cc(Cn2[nH]c(N)cc2=O)ccc1Cl`, 143 °C.
For `O=C(NCC1Cc2cc(Cl)c3ccccc3c2O1)OCc1ccccc1` (centres undefined), the melting point lay in the range of 117 to 119 °C.
To `CCCCn1nc(C(C)C)c(C(=O)O)c1Cc1ccc(-c2ccccc2-c2nnn[nH]2)cc1` belongs 103 to 108 °C.
In the case of `Clc1nnc(Cc2ccncc2)c2ccccc12` it was 116 to 119 °C.
To `CN(c1cccc2cc(C(=O)O)[nH]c12)S(=O)(=O)c1ccccc1C(F)(F)F` belongs 211 to 212 °C.
`CCCCCN(CCC12CC3CC(CC(C3)C1)C2)C(=O)NCCNc1ccncc1` registered a melting point of 134 °C.
In the case of `CCN1CC(NC(=O)c2ccc(OCC=C(C)CCC=C(C)C)cc2)CN1CC` it was 95.5 to 97 °C; in that of `CCOC(=O)c1cc(=O)c2c(OCC(O)COc3cccc(C(F)(F)F)c3)cccc2o1` (centres undefined), 70 to 75 °C; in that of `COc1cccc2cc(C(=O)O)c(C(=O)O)cc12`, 210 to 212 °C.
To `N#CC12CCCC(C1)C1CCC2C1` (centres undefined) belongs 109 to 110 °C.
In the case of `CC(C)(C)OC(=O)c1ncn2c1[C@@H]1CCCN1C(=O)c1c(Br)cccc1-2` it was 206 to 208 °C; in that of `CCOCC(=O)C(=CN(CC)CC)c1cccc(C(F)(F)F)c1`, 131 to 133 °C; in that of `CCOC(=O)c1cc2oc3c(n2n1)CCOC3`, 116 to 118 °C.
`O=C1CN(C(c2ccccc2)c2ccccc2)N1`: the melting point fell in the range of 160 to 163 °C.
`COc1ccc(C2=NN(c3ccccc3C)C(=O)[C@H]3CC=CC[C@@H]23)cc1OC` (relative stereo) showed a melting point of 144 to 145 °C.
Consider `CCOC(=O)Cc1ccc(NC(=O)C(COc2cccnc2)NS(=O)(=O)c2ccc(F)cc2)cc1` (racemic), for which the melting point was in the range of 150 to 152 °C.
To `O=C(NCCSc1ccccc1)n1cc(F)c(=O)[nH]c1=O` belongs 130 to 133 °C.
In the case of `C[C@]1(COc2ccc3nc(N4CCC(=Cc5ccc(OC(F)(F)F)cc5)CC4)ccc3c2)Cn2cc([N+](=O)[O-])nc2O1` it was 194 to 196 °C; in that of `CC(C)(O)CCCCCc1ccc(C=Cc2ccc(CO)c(CO)c2)cc1`, 112 to 114 °C; in that of `CCN(CC)CC1CCCCN1CCCCN1c2ccccc2C(=O)Nc2cccnc21` (centres undefined), 112 °C.
To `CCOC(=O)c1c(N)c(Cl)cc2c1OCO2` belongs 77 to 78 °C.
The compound `CC1SC(=O)NN=C1c1ccc2c(c1)CCCN2C(=O)c1ccc2c(c1)OCO2` (single isomer, unassigned; (-)) yielded a melting point of 180 °C.
To `CCCCN1Cc2[nH]c3ccccc3c2C1` belongs 151 to 152 °C; to `CC(C)(C)c1ccc([C@H]2CCCN2[S@@](=O)C(C)(C)C)cc1`, 45 to 50 °C; to `N#Cc1ccc(N2CCN(Cc3ccccc3)CC2)cc1`, 104 to 105 °C.
The compound `Nc1ccc2nc3c(nc2c1)OCC1CCCCN31` (centres undefined) returned a melting point of 229 to 232 °C.
In the case of `COP1(=O)C=Cc2ccccc21` (centres undefined) it was 89 to 90 °C; in that of `CC(C#CC1=C(C)C(O)C(O)C1(C)C)=CCO` (centres undefined), 121 to 122 °C.
In the case of `CC(=NO)C(=O)c1ccc(NS(C)(=O)=O)c(Sc2ccc(F)cc2F)c1` it was 140 to 143 °C; in that of `CCc1cccc(CNC[C@@H](O)[C@H](Cc2cc(F)cc(F)c2)NC(=O)C2CCC(CS(C)(=O)=O)CC2)c1` (some centres undefined), 45 to 50 °C; in that of `COc1cc2c(cc1OC)[C@@H]1CCCC[C@@H]1N=C2c1ccc(N)cc1` (racemic), 160 to 161 °C.
To `CC(C)C(OCCc1ccc(-c2ccc(Cl)cc2)cc1)C(=O)O` (centres undefined) belongs 91 to 92 °C; to `CC(=O)Nc1nc(CCc2ccc(NC(=O)CNC(=O)OC(C)(C)C)cc2)c(Cc2ccc(S(C)(=O)=O)cc2)s1`, 186 to 188 °C.
In the case of `C[C@@H](N)CNc1ccnc2cc(Cl)ccc12`, the melting point came out at 145 °C.
In the case of `FC(F)(F)c1nnc2c3cc(Cl)ccc3ccn12` it was 228 °C.
To `Cc1c(C(=O)Nc2ccc(-c3ccc(S(=O)(=O)NC(C(=O)O)C(C)C)cc3)cc2)oc2ccccc12` (centres undefined) belongs 264 to 266 °C; to `Cc1nc2cccc(C)n2c(=O)c1CCN1CCC(c2c[nH]c3ccccc23)CC1`, 225 °C.
In the case of `O=C(CCC(=O)c1ccccc1)NC1CCCCC1` it was 109 to 111 °C; in that of `Cc1nc(C)c(-c2ccnc(Nc3ccc(N4CCOCC4)c(C)c3)n2)s1`, 164 to 166 °C; in that of `COc1cc(C(=O)P2(=O)Oc3ccccc3-c3ccccc32)cc(OC)c1OC` (centres undefined), 147 to 149 °C.
As for `CCOC(=O)/C=C/c1ccc(Br)nc1`, the melting point lay within 79 to 80 °C.
In turn, `O=S(=O)(/C=C/c1ccc(F)cc1)CS(=O)(=O)/C=C/c1ccc(F)cc1` registered a melting point of 183 to 185 °C.
The compound `O=C1c2c(cc(O)c(Cl)c2Cl)CC1(c1ccccc1)c1ccccc1` had a melting point of 207 to 213 °C.
To `O=C1NC(=O)C(c2c3n(c4ccccc24)CCC(CO)C3)=C1c1coc2ccccc12` (centres undefined) belongs 246 to 248 °C; to `CC#Cc1cn(C2OC(CO)C(O)C2O)c(=O)nc1N` (centres undefined), 241 to 243 °C; to `O=C(O)c1cc(CCNS(=O)(=O)c2ccccc2)c2cccccc1-2`, 193 to 195 °C.
In the case of `COC(=O)NC1=NCC(c2ccc(OC(C)C)cc2)N1C` (centres undefined) it was 135 to 138 °C; in that of `O=C(O)CCCC(=O)c1ccc(O)c(CCC(=O)O)n1`, 134 to 136 °C; in that of `CCOC(=O)C(C(=O)C(C)C)C(CC(=O)C(C)(C)C)c1ccc(F)cc1` (centres undefined), 80 to 89 °C.
To `OC(CCl)CNc1ccc(Cl)c(Cl)c1` (centres undefined) belongs 51 to 53 °C; to `CCCOC(=O)Nc1cnc(OCCC)c(-c2nc3c(CCC)nn(C)c3c(=O)[nH]2)c1`, 210 to 211 °C; to `CCOc1ccccc1OCC(O)CCN1C(=O)c2ccccc2C1=O` (centres undefined), 93 to 95 °C.
Turning to `Cc1cc(=O)oc2nn(C(C)C)c(C)c12`, the melting point was 164 to 166 °C.
`CCN1CCN(c2ccnc3c(NC(=O)c4c(Cl)cccc4Cl)ccc(C)c23)C1=O` came in with a melting point of 235 to 236 °C.
`CCOC(=O)c1ccc(Cn2cnc3cnccc32)cc1` gave a melting point of 156 to 157 °C.
To `COc1ccc([C@@H]2Cc3c(cccc3C(F)(F)F)N(CC3=NCCN3C(=O)OC(C)(C)C)C(=O)[C@@H]2OC(C)=O)cc1` belongs 105 to 108 °C; to `CCOC(=O)c1cc(-c2cn(Cc3ccccc3C#N)c(=O)n2-c2ccc(F)cc2)ccn1`, 164 °C; to `CCOc1ccc2c(=S)cc[nH]c2c1`, 171 to 174 °C.
To `CCOCCN(CCOCC)C(=O)c1n[nH]c2c(=O)[nH]c3cc(Cl)ccc3c(=O)c12` belongs 202 °C; to `N=c1c2ccccc2ccc2ccccc12`, 60 to 62 °C; to `CCC(C)C(=O)c1nc(C)nc2c1c(C)c(C)n2-c1c(C)cc(C)cc1C` (centres undefined), 133 to 135 °C.
Regarding `Cc1cccc(Oc2c(-c3ccc(S(C)(=O)=O)cc3)oc(C)cc2=O)c1`, the melting point came to 162 °C.
To `Fc1ccc(-c2ccnc(Nc3ccc4c(c3)OCCO4)c2)cc1` belongs 134 to 135 °C; to `O=C(O)CN1C(=O)C(=Cc2ccc([N+](=O)[O-])cc2)SC1=S`, 274 to 277 °C; to `C[C@H]1C(=O)Nc2ccc(Cl)cc2N1C(=O)OCCBr`, 133 to 136 °C.
To `O=C(O)C1CCc2c(c3ccccc3n2C(=O)c2cccc(I)c2)C1` (centres undefined) belongs 210 to 212 °C; to `Cc1nc2cccc(S(=O)(=O)n3c(COC(C)(C)C(=O)O)cc4cc(C(F)(F)F)ccc43)c2s1`, 98 to 100 °C.
To `O=[N+]([O-])c1ccc(N2CCCC2)c(S(=O)(=O)O)c1` belongs 178 to 179 °C; to `CN1CCC(c2c[nH]c3ccc(NC(=O)C4CCCC4)nc23)CC1`, 119 to 121 °C; to `Cc1cc(C2=NN(c3nccs3)[C@H](C)Cc3cc4c(cc32)OCO4)ccc1[N+](=O)[O-]`, 138 to 142 °C.
For the compound `Cc1c(C)c(CC(C)(C)C#N)c(C)c(C)c1CC(C)(C)C#N`, the melting point was in the range of 187 to 190 °C.
In the case of `CN(C=O)CNC(=O)c1cc(Cl)nc(Cl)c1` it was 150 to 155 °C; in that of `CC(=O)N[C@H]1C(n2cc(Cl)cnc2=O)O[C@H](COC(C)=O)[C@@H](OC(C)=O)[C@@H]1OC(C)=O` (some centres undefined), 165 to 167 °C.
In the case of `O=C(O)Cc1cccc(Oc2ccccc2F)c1[N+](=O)[O-]` it was 144 to 146 °C.
In the case of `NC(=O)c1ccc(OCc2ccccc2)cc1CCN1CCNCC1` it was 116 to 118 °C.
